Results: patent US20050137806A1 (priority 2003, published 2005)
Counter-ions that a name gives are not always drawn.

Tested on: a cell line
Assay type: cell-based
Conditions: for mitotic index as a function of drug concentration (dose response path): FIG. 2A, drugs in aqueous DMSO, multiple concentrations, fraction of cells in mitosis
Experimental: As shown, four different drugs were tested against a cell line at multiple concentrations. Taxol, one of the drugs, was tested twice. For each drug at each concentration various images were taken to extract various cellular features by image analysis. In some cases, basic extracted features are analyzed using appropriate classification algorithm to provide higher-level biological classifications such as mitotic state. In FIG. 2A, the feature is “mitotic index” (a numerical classification of the cells an image on basis of the fraction of them in mitosis) shown as the dependent variable with respect to concentration in a two-dimensional plot.
All drugs were provided in an aqueous solution of dimethyl sulfoxide (DMSO). As a negative control, the cells were exposed to aqueous DMSO without any drug present. Normally, an aqueous DMSO solution is used as the solvent for delivering drugs to samples. The feature values extracted for cells exposed to the DMSO control are shown as signatures 207.
Another approach replaces the concentration variable (generally a level of stimulus variable) with another variable that can depict a trajectory but is relatively independent of potency. In other words, the chosen feature space is independent (or largely independent) of dose (concentration). […] This new variable is a measure of the number of cells that survived the treatment. Because the variable changes only when the drug begins taking effect (regardless of absolute concentration), it effectively puts all curves on the same potency scale. Using this plot, one can more rigorously classify Taxol and Cytochalasin A as having the same mechanism of action (based on mitotic index as the dependent variable).

Structure (SMILES)	mitotic index as a function of drug concentration (dose response path)	mitotic index versus number of cells (response path comparison) (FIG. 2B, concentration not displayed, number of cells that survived treatment as axis)
CC(=O)O[C@H]1C(=O)[C@@]2(C)[C@H]([C@H](OC(=O)c3ccccc3)[C@]3(O)C[C@H](OC(=O)[C@H](O)[C@@H](NC(=O)c4ccccc4)c4ccccc4)C(C)=C1C3(C)C)[C@]1(OC(C)=O)CO[C@@H]1C[C@@H]2O [Taxol]	S-shaped	act similarly to the tested concentrations of Vinblastine Sulfate
CC[C@@H]1/C=C/C=C/C[C@H](C)[C@H](O)[C@](C)(O)C(=O)[C@H](C)[C@@H](O)[C@H](C)C(=O)[C@H](C)[C@@H](O)[C@H](C)/C=C/C(=O)O[C@H]2[C@@H](C)[C@@H](CC1)O[C@@]1(CC[C@@H](C)[C@@H](C[C@H](C)O)O1)[C@@H]2C [Oligomycin A]	very little impact on mitotic index until relatively high concentrations are used	
C=C1[C@@H](C)[C@H]2[C@H](Cc3ccccc3)NC(=O)[C@]23OC(=O)/C=C/C(=O)CCC[C@@H](C)C/C=C/[C@H]3[C@@H]1O [Cytochalasin A]	S-shaped	
CC[C@]1(O)C[C@@H]2CN(CCc3c([nH]c4ccccc34)[C@@](C(=O)OC)(c3cc4c(cc3OC)N(C)[C@H]3[C@@](O)(C(=O)OC)[C@H](OC(C)=O)[C@]5(CC)C=CCN6CC[C@]43[C@@H]65)C2)C1 [Vinblastine Sulfate]	relatively high numerical value of mitotic index at various concentrations	
